Measurements from ChEMBL document CHEMBL1151411, “Plant Anticancer Agents. XIII. Constituents of Austrocedrus chilensis” (1983).
Values after ≈ are worked out from the molar mass of the structure shown.

Tested on: KB
Assay: Cytotoxicity against human KB cells
Type: functional
Conditions: read-out: ED50 (the source's name)

| SMILES | EC50 |
| --- | --- |
| CC(C)C1=CC2(O)CC[C@H]3C(C)(C)CCC[C@]3(CO)C2=CC1=O (some centres not stated) | 16 µg/mL (≈ 50.2 µM) |
| CC(C)c1cc2c(cc1O)[C@@]1(CO)CCCC(C)(C)[C@@H]1CC2 [PISIFEROL] | 100 µg/mL (≈ 331 µM) |
